Data published in patent publication US20200024278A1, “COMPOSITION COMPRISING ANTIBIOTIC COMPOUND AND AN HETEROCYCLIC COMPOUND AND THEIR USE IN PREVENTING OR TREATING BACTERIAL INFECTIONS” (MUTABILIS, priority 2016, published 2020).

Key:
Assay in all cases: MIC, broth microdilution (CLSI), substance alone or ATB combined with compound at 4 or 8 μg/mL
[1] = test system: KPN 6299; assay type: cell-based, K. pneumoniae; details: for MIC ATB combined with Example: Example @8 μg/ml
How it was run: (§1)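 Each strain received 5·10^5 CFU/mL of log-phase cells in ca-MHB over DMSO-spotted compound or compound-antibiotic combinations. After 16-20 h at 35° C, growth was scored visually.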

[2] = test system: KPN UFR42; assay type: cell-based, K. pneumoniae; details: KPN UFR42; for MIC ATB combined with Example: Example @8 μg/ml; for MIC ATB combined with Example compound: compound @8 μg/ml
How it was run: as §1

[3] = test system: KPN BAA-1898; assay type: cell-based, K. pneumoniae; details: KPN BAA-1898; for MIC ATB combined with Example: Example @8 μg/ml
How it was run: as §1

[4] = test system: SAU 29213; assay type: cell-based, S. aureus; details: for MIC ATB combined with Example / MIC ATB combined with Example compound: SAU 29213; for MIC ATB combined with Example: Example @8 μg/ml; for MIC ATB combined with Example compound: compound @8 μg/ml
How it was run: as §1

[5] = test system: SPN 49619; assay type: cell-based, S. pneumoniae; details: SPN 49619; for MIC ATB combined with Example: Example @8 μg/ml; for MIC ATB combined with Example compound: compound @8 μg/ml
How it was run: as §1

SMILES: O=C1N2CC(n3cccn3)=CC(C2)N1OS(=O)(=O)[O-].[Na+] (stereo not shown) [Example 11, sodium (7-oxo-3-pyrazol-1-yl-1,6-diazabicyclo[3.2.1]oct-3-en-6-yl) sulfate]
- MIC ATB combined with Example ([1]; ATB ATM): <0.031 µg/mL
- MIC ATB combined with Example ([1]; ATB FEP): <0.031 µg/mL
- MIC ATB combined with Example ([1]; ATB FOS): <0.125 µg/mL
- MIC ATB combined with Example ([1]; ATB MEM): <0.031 µg/mL
- MIC ATB combined with Example ([1]; ATB PIP): <=0.031 μg/mL
- MIC ATB combined with Example compound ([1]; MIC of CIP, compound @8 μg/ml): <=0.031 μg/mL
- MIC ATB combined with Example ([2]; ATB ATM): <0.031 µg/mL
- MIC ATB combined with Example ([2]; ATB FEP): <0.031 µg/mL
- MIC ATB combined with Example ([2]; ATB FOS): <0.125 µg/mL
- MIC ATB combined with Example ([2]; ATB MEM): 0.5 µg/mL
- MIC ATB combined with Example ([2]; ATB PIP): >32 µg/mL
- MIC ([2]; Klebsiella pneumoniae, substance alone, read-out: MIC): 8 µg/mL
- MIC ATB combined with Example compound ([2]; MIC of CIP): 32 µg/mL
- MIC ATB combined with Example compound ([2]; MIC of CPO): <0.031 µg/mL
- MIC ATB combined with Example ([3]; ATB ATM): <0.031 µg/mL
- MIC ATB combined with Example ([3]; ATB FEP): <0.031 µg/mL
- MIC ATB combined with Example ([3]; ATB FOS): <=0.125 μg/mL
- MIC ATB combined with Example ([3]; ATB MEM): <=0.031 μg/mL
- MIC ATB combined with Example ([3]; ATB PIP): <0.031 µg/mL
- MIC ([3]; Klebsiella pneumoniae, BAA1898, substance alone, read-out: MIC): 8 µg/mL
- MIC ATB combined with Example compound ([3]; MIC of CIP, compound @8 μg/ml): <0.031 µg/mL
- MIC ATB combined with Example ([4]; ATB ATM): >32 µg/mL
- MIC ATB combined with Example ([4]; ATB FEP): 0.5 µg/mL
- MIC ATB combined with Example ([4]; ATB FOS): <=0.125 μg/mL
- MIC ATB combined with Example ([4]; ATB MEM): <=0.031 μg/mL
- MIC ATB combined with Example ([4]; ATB PIP): 0.125 µg/mL
- MIC ATB combined with Example compound ([4]; MIC of CIP): <=0.031 μg/mL
- MIC ATB combined with Example compound ([4]; MIC of CLI): <0.0010 µg/mL
- MIC ATB combined with Example compound ([4]; MIC of CPO): <0.031 µg/mL
- MIC ATB combined with Example compound ([4]; MIC of DAP): <=0.0020 μg/mL
- MIC ATB combined with Example compound ([4]; MIC of ERY): <0.0020 µg/mL
- MIC ATB combined with Example compound ([4]; MIC of LZD): <0.0078 µg/mL
- MIC ATB combined with Example compound ([4]; MIC of RIF): 0.002 µg/mL
- MIC ATB combined with Example compound ([4]; MIC of SYN): 0.125 µg/mL
- MIC ATB combined with Example compound ([4]; MIC of VAN): <0.0039 µg/mL
- MIC ([4]; Staphylococcus aureus, substance alone, SAU 29213 (MSSA 29213), read-out: MIC): 8 µg/mL
- MIC ATB combined with Example ([5]; ATB ATM): >32 µg/mL
- MIC ATB combined with Example ([5]; ATB FEP): <=0.031 μg/mL
- MIC ATB combined with Example ([5]; ATB FOS): 8 µg/mL
- MIC ATB combined with Example ([5]; ATB MEM): <=0.031 μg/mL
- MIC ATB combined with Example ([5]; ATB PIP): 0.5 µg/mL
- MIC ATB combined with Example compound ([5]; MIC of CIP): <0.031 µg/mL
- MIC ATB combined with Example compound ([5]; MIC of CLI): 0.0078 µg/mL
- MIC ATB combined with Example compound ([5]; MIC of CPO): <=0.031 μg/mL
- MIC ATB combined with Example compound ([5]; MIC of DAP): 0.125 µg/mL
- MIC ATB combined with Example compound ([5]; MIC of ERY): 0.0078 µg/mL
- MIC ATB combined with Example compound ([5]; MIC of LZD): 0.25 µg/mL
- MIC ATB combined with Example compound ([5]; MIC of RIF): 0.002 µg/mL
- MIC ATB combined with Example compound ([5]; MIC of SYN): 0.25 µg/mL
